Consider one compound from patent US7763604B2, “Methods for administration of a farnesyl dibenzodiazepinone” (Thallion Pharma Ceuticals, Inc., priority 2005, dated 2010).

Data set [1] is described as follows: acute toxicity, 24-hour CIV administration in monkeys. In kind it is in vivo.
In data set [2] the test system is human glioma (U-87MG) tumor xenograft. The experiment in a line: human U-87MG glioblastoma xenograft antitumor efficacy. It counts as in vivo, female athymic (nu/nu) nude mice. The following applies: SC 30 mg/kg q1d×5 over 2 weeks. The source says:
In this model and the models of Examples 3, 6 and 7, tumor growth was followed every other day by measuring tumor length (L) and width (W) using a calliper. Measurements were converted to tumor volumes (TV; mm^3) using the standard formula, TV=(L×W^2)/2. Tumor volume at day n was expressed as relative tumor volume (RTV) according to the following formula RTV=TVn/TV0, where TVn is the tumor volume at day n and TV0 is the tumor volume at day 0. The percentage of tumor growth inhibition (% TGI) was determined by 1−(mean RTV of treated group/mean RTV of control group)×100. […] Statistical analysis was calculated by the two-tailed unpaired t test using the Prism software. Animals were weighed at least twice weekly during and after treatment until completion of the study. The mice were examined frequently for overt signs of any adverse drug-related side effects.
The human U-87 MG (ATCC® no. HTB-14™) glioblastoma antitumor efficacy study was performed at INSERM U318 (Grenoble, France). The U-87MG cell line is derived from a brain glioblastoma of a person. […]
For the human glioblastoma antitumor efficacy study, female athymic (nu/nu) nude mice (6-7 weeks of age) were inoculated SC with 5×10^6 U-87MG cells (day 0). […] Tumor growth inhibition (TGI) was calculated on day 34 post tumor cell inoculation, at which time some animals from the vehicle control group had to be sacrificed due to tumor burden.
(In general: Xenograft models place foreign cells or tissue in a host animal.)

Data set [3] can be described thus: pharmacokinetics and tissue levels after 30 mg/kg bolus IV, IP, SC and PO in mice. In kind it is in vivo, female Crl: CD1 mice. The procedure:
The compound of formula I was dissolved in ethanol (5%), Polysorbate 80 (15%), PEG 400 (5%) and dextrose (5%) at a final concentration of 6 mg/ml (IV, IP and SC administration). For oral administration, the compound of Formula I was solubilized in Chremophor® EL/Ethanol (50%:50%) at a final concentration of 6 mg/ml. Prior to dosing, animals (female Crl: CD1 mice; 6 weeks of age, 22-24 g) were weighed, randomly selected and assigned to the different treatment groups. The compound of Formula I was administered by the bolus intravenous (IV), bolus subcutaneous (SC), bolus intraperitoneal (IP), or oral (PO) route to the assigned animals. The dosing volume of Formula I was 5 mL per kg body weight. Animals were anesthetized prior to bleeding with 5% isoflurane. Blood was collected into microtainer tubes containing the anticoagulant K2EDTA by cardiac puncture from each of 4 animals per bleeding timepoint (2 min, 5 min, 15 min, 30 min, 1 h, 2 h, 4 h and 8 h). Following collection, the samples were centrifuged and the plasma obtained from each sample was recovered and stored frozen (at approximately −80° C.) pending analysis. At the 5 min and 30 min time points, the following organs were harvested from each animal: brain, lungs, skeletal muscle, fat tissue, kidneys, spleen, thymus and liver. Tissues were frozen (at approximately −80° C.) pending analysis. Samples were analysed by LC/MS/MS.
Plasma values of the compound of Formula I falling below the limit of quantitation (LOQ) were set to zero. […] The following pharmacokinetic parameters were calculated: area under the plasma concentration versus time curve from time zero to the last measurable concentration time point (AUCO-t), area under the plasma concentration versus time curve extrapolated to infinity (AUCinf), maximum observed plasma concentration (Cmax), time of maximum plasma concentration (tmax), apparent first-order terminal elimination rate constant (kel), apparent first-order terminal elimination half-life will be calculated as 0.693/kel (t1/2). The systemic clearance (CL) of the compound of Formula I after intravenous administration was calculated using Dose/AUCinf. Pharmacokinetic parameters were calculated using Kinetica™ 4.1.1 (InnaPhase Corporation, Philadelphia, Pa.).

A short description of data set [4]: population pharmacokinetic analysis, mouse (IV). In kind it is in vivo. The note with it: population PK. The method, then:
An analysis was performed to derive allometric equations for Formula I pharmacokinetic parameters using Formula I plasma concentration-time data from three species, including mouse, rat, and monkey, and to estimate human pharmacokinetic parameters from those allometric equations.
Plasma concentrations of Formula I were obtained from mice, rats, and monkeys following intravenous injection or continuous infusion. Formula I pharmacokinetic parameters in mice, rats, and monkeys were estimated using population pharmacokinetic analysis, a function of the software program NONMEM™ (version 5). Typical population pharmacokinetic parameters for Formula I in humans were extrapolated from allometric equations that were derived from pharmacokinetic parameters estimated in the three animal species.
A two-compartment model with a first-order elimination from the central compartment adequately described Formula I plasma concentration-time profiles following intravenous bolus injection (30 mg/kg) in mice and rats, 7-day continuous infusion in rats (50 to 170 mg/kg/day), and 14-day continuous infusion in monkeys (5 to 30 mg/kg/day).

Consider `CC(C)=CCC/C(C)=C/CC/C(C)=C/CN1C(=O)c2cccc(O)c2Nc2c(O)cc(O)cc21` [Formula I, 10-farnesyl-4,6,8-trihydroxy-dibenzodiazepin-11-one], for which the tolerability result in data set [1] (35 mg/kg) and in data set [1] (70 mg/kg) was “well tolerated” in each case. Also, the body weight loss entry in data set [2] is listed as “no significant body weight loss”. Further, the peak plasma concentration in data set [3] (IP bolus 30 mg/kg) is 7.8 µM; in data set [3] (SC bolus 30 mg/kg) it was 2.3 µM. The “time to peak plasma concentration” value in data set [3] (IP bolus 30 mg/kg) came out at 15 min; in data set [3] (SC bolus 30 mg/kg), 60 min. The tissue distribution result in data set [3] (IV and IP bolus 30 mg/kg, 30 min time point) is “well distributed”. In addition, the “drug levels after oral administration” value in data set [3] (PO 30 mg/kg) was “moderate but sustained drug levels”. In data set [3] (SC bolus 30 mg/kg, 30 min time point), the “tissue levels compared with IP” value is listed as “significantly lower”. In addition, the “t1/2,α” value in data set [3] (bolus IV 30 mg/kg, plasma, mice, 30 mg/kg) is given as 4.7 min. Moreover, the “plasma concentration, initial” value in data set [3] (bolus IV 30 mg/kg, start of decline) is about 425 µM. For the same compound, the “time plasma concentration is maintained at therapeutically relevant levels” value in data set [3] (intraperitoneal and subcutaneous bolus 30 mg/kg, mice) is on record as “over 8 hours”. The Ke in data set [4] is 8.466 h⁻¹.
